Ends that are not written are not given here.
System: HFD mice
Assay: gavage of peptides in HFD mice: triglyceride in feces, week 7
Type: in vivo, C57BL/6 mice
Conditions: gavage 2 pmol/g, feces of week 7, compared with HFD control group, FIG. 7B
Method: Feces of each mouse may be collected in week 7, baked at 60° C. for 3 days to ensure complete dryness. Then, 1 mg of the feces may be collected and soaked in 1 ml of a mixed solution consisting of chloroform and methanol in a ratio of 2:1. The soaked feces may then be disrupted with a tissue homogenizer and centrifuged to obtain a supernatant. The supernatant may be detected for triglyceride by the Roche blood biochemical analyzer. Experimental results are shown in FIG. 7B. **: P<0.01, ***: P<0.001.
(§1) Feces of the mice may be collected in the 7th week of the experiment and baked at 60° C. for 3 days to ensure complete dryness. Then, 1 mg of the feces may be weighed and soaked in 1 ml of a mixed solution containing chloroform and methanol in a ratio of 2:1. The feces with the mixed solution may be disrupted by a tissue homogenizer and centrifuged to obtain a supernatant. The supernatant may be detected for triglyceride by the Roche blood biochemical analyzer.
as §1, with “2:1.The” for “2:1. The”
as §1, with “each mouse” for “the mice”, “experiment,” for “experiment”, “dryness.” for “dryness. Then,”, “in” for “with”

## YLGASVPSPDPLEPT [ISAP1]
  content (level) of triglyceride in the feces: significantly increased
